Experimental data from patent US11253497B2, “Use of derivatives of polyunsaturated fatty acids as medicaments” (Lipopharma Therapeutics, S.L., priority 2009, dated 2022).

Assays:
lung cancer cells A549 = experiment: Growth of lung cancer cells A549 (IC50); type: cell-based, human; settings: 72 hours of incubation
Method: (§1) For the experiments shown in FIG. 1, cultured human Non Small Cell Lung Cancer cells (A549) in RPMI 1640 were used, supplemented with 10% foetal bovine serum and antibiotics, at 37° C. and 5% CO2. […] After treatment, cell count was performed and the study of the mechanisms involved in the antitumor activity of compounds was evaluated by flow cytometry. […] These values correspond to averages of three independent experiments.
(§2) These charts show the antitumor efficacy of the compounds of this invention against the growth of breast cancer cells, brain (glioma), and lung cancer. […] The other experimental conditions are identical to those described in the preceding paragraph.

[1] = system: breast cancer cells MDA-MB-231; experiment: Growth of breast cancer cells MDA-MB-231; type: cell-based; settings: 72 hours of incubation
Method: as §1, §2

[2] = system: brain cancer cell (glioma) U118; experiment: Brain cancer (glioma) U118 cell growth; type: cell-based; settings: 72 hours of incubation
Method: For the experiments shown in FIG. 1, cultured human Non Small Cell Lung Cancer cells (A549) in RPMI 1640 were used, supplemented with 10% foetal bovine serum and antibiotics, at 37° C. and 5% CO2. Cells were maintained in culture for 48 hours in the presence or absence of D-PUFAs and PUFAs indicated in Table 2 at a concentration of 250 µM. After treatment, cell count was performed and the study of the mechanisms involved in the antitumor activity of compounds was evaluated by flow cytometry. […] These values correspond to averages of three independent experiments.
as §2

[3] = Lamellar-to-hexagonal (HII) transition temperature in DEPE model membranes by Differential Scanning Calorimetry; type: physicochemical; settings: DEPE membranes, DEPE:D-PUFA 10:1 (mol:mol)
Method: The transition temperature was determined by Differential Scanning Calorimetry. The proportion DEPE:D-PUFA was 10:1 (mol:mol) in all cases. Lamellar-to-hexagonal transition is an important parameter that reflects relevant signalling properties of cell membranes. […] When this occurs, certain peripheral membrane proteins (such as G proteins, protein kinase C or Ras protein) can more easily bind to the membrane, while others have a poor interaction (e.g., the Gα-protein), so changes in the HII transition temperature are important in regulating cellular functions related to health and human therapy (Escriba et al., 1995, Vogler et al., 2004; Escriba, 2006).
Control values correspond to model membranes in the absence of fatty acids. The reduction in HII transition temperature obtained by using the D-PUFA of the invention indicates an increased induction of membrane discontinuities, generating anchoring sites in the membrane for peripheral proteins and leads to better regulation of cell signalling and, therefore, greater effectiveness in the control of certain diseases.

Structure (SMILES)	IC50 (lung cancer cells A549) [µM]	IC50 [1] [µM]	IC50 [2] [µM]	Temperature of lamellar-to-hexagonal transition [3] [°C]
CCCCCC=CCC=CCCCCCCC(O)C(=O)O (stereo not drawn) [182C1]	635	386	208	–
CCCCCC=CCC=CCCCCCCC(O)C(=O)OC (stereo not drawn) [182D1]	541	277	221	51
CCCCCC=CCC=CCCCCCCC(O)C(=O)OCC (stereo not drawn) [182E1]	387	289	213	50.6
CCCCCC=CCC=CCCCCCCC(OC)C(=O)O (stereo not drawn) [182G1]	439	378	205	51
CCCCCC=CCC=CCCCCCCC(OC)C(=O)OC (stereo not drawn) [182H1]	462	402	267	–
CCCCCC=CCC=CCCCCCCC(OC)C(=O)OCC (stereo not drawn) [182I1]	673	411	240	–
CCCCCC=CCC=CCCCCCCC(C)C(=O)OC (stereo not drawn) [182M1]	286	362	238	–
CCCCCC=CCC=CCCCCCCC(Cl)C(=O)OCC (stereo not drawn) [182O1]	452	286	–	51.7
CCCCCC=CCC=CCCCCCCC(CO)C(=O)OCC (stereo not drawn) [182Q1]	293	328	–	–
CCCCCC=CCC=CCCCCCCC(OP(=O)(OCC)OCC)C(=O)OCC (stereo not drawn) [182R1]	317	371	255	52.2
CCCCCC=CCC=CCCCCCCC(F)C(=O)OCC (stereo not drawn) [182T1]	379	391	214	–
CCCCCC=CCC=CCCCCCCC(OC=O)C(=O)OC (stereo not drawn) [182U1]	255	410	212	–
CCCCCC=CCC=CCCCCCCC(C(=O)OCC)N(OCC)OCC (stereo not drawn) [182W1]	416	391	246	–
CCC=CCC=CCC=CCCCCCCC(O)C(=O)O (stereo not drawn) [183C1]	281	289	–	–
CCCCCC=CCC=CCC=CCCCC(O)C(=O)O (stereo not drawn) [183C2]	241	168	379	–
CCC=CCC=CCC=CCCCCCCC(O)C(=O)OC (stereo not drawn) [183D1]	326	245	–	51.1
CCCCCC=CCC=CCC=CCCCC(O)C(=O)OC (stereo not drawn) [183D2]	267	175	385	49.4
CCC=CCC=CCC=CCCCCCCC(O)C(=O)OCC (stereo not drawn) [183E1]	294	319	–	49.8
CCCCCC=CCC=CCC=CCCCC(O)C(=O)OCC (stereo not drawn) [183E2]	243	193	–	49.3
CCC=CCC=CCC=CCCCCCCC(OC)C(=O)O (stereo not drawn) [183G1]	273	364	329	50.3

Structure (SMILES)	IC50 (lung cancer cells A549) [µM]	IC50 [1] [µM]	IC50 [2] [µM]	Temperature of lamellar-to-hexagonal transition [3] [°C]
CCC=CCC=CCC=CCCCCCCC(OC)C(=O)OC (stereo not drawn) [183H1]	319	308	408	–
CCCCCC=CCC=CCC=CCCCC(OC)C(=O)OC (stereo not drawn) [183H2]	219	170	443	–
CCC=CCC=CCC=CCCCCCCC(OC)C(=O)OCC (stereo not drawn) [183I1]	348	274	321	–
CCCCCC=CCC=CCC=CCCCC(OC)C(=O)OCC (stereo not drawn) [183I2]	276	210	432	–
CCC=CCC=CCC=CCCCCCCC(C)C(=O)OC (stereo not drawn) [183M1]	322	407	349	–
CCCCCC=CCC=CCC=CCCCC(C)C(=O)OC (stereo not drawn) [183M2]	248	164	407	–
CCCCCC=CCC=CCC=CCCCC(Cl)C(=O)OCC (stereo not drawn) [183O2]	318	217	–	51.3
CCC=CCC=CCC=CCCCCCCC(CO)C(=O)OCC (stereo not drawn) [183Q1]	273	312	282	–
CCCCCC=CCC=CCC=CCCCC(CO)C(=O)OCC (stereo not drawn) [183Q2]	314	205	392	–
CCC=CCC=CCC=CCCCCCCC(F)C(=O)OCC (stereo not drawn) [183T1]	367	290	368	–
CCCCCC=CCC=CCC=CCCCC(F)C(=O)OCC (stereo not drawn) [183T2]	279	216	423	–
CCC=CCC=CCC=CCCCCCCC(OC=O)C(=O)OC (stereo not drawn) [183U1]	294	344	343	–
CCCCCC=CCC=CCC=CCCCC(OC=O)C(=O)OC (stereo not drawn) [183U2]	287	228	380	–
CCC=CCC=CCC=CCCCCCCC(C(=O)OCC)N(OCC)OCC (stereo not drawn) [183W1]	352	311	–	–
CCCCCC=CCC=CCC=CCCCC(C(=O)OCC)N(OCC)OCC (stereo not drawn) [183W2]	212	203	438	–
CCCCCC=CCC=CCC=CCC=CCCC(O)C(=O)O (stereo not drawn) [204C1]	521	389	287	–
CCCCCC=CCC=CCC=CCC=CCCC(OC)C(=O)OC (stereo not drawn) [204H1]	398	363	263	–
CCCCCC=CCC=CCC=CCC=CCCC(OC)C(=O)OCC (stereo not drawn) [204I1]	459	315	328	–
CCCCCC=CCC=CCC=CCC=CCCC(OC(C)=O)C(=O)OC (stereo not drawn) [204J1]	362	285	296	–
CCCCCC=CCC=CCC=CCC=CCCC(C)C(=O)OC (stereo not drawn) [204M1]	375	321	309	–

Structure (SMILES)	IC50 (lung cancer cells A549) [µM]	IC50 [1] [µM]	IC50 [2] [µM]	Temperature of lamellar-to-hexagonal transition [3] [°C]
CCCCCC=CCC=CCC=CCC=CCCC(Cl)C(=O)OCC (stereo not drawn) [204O1]	461	298	–	49.7
CCCCCC=CCC=CCC=CCC=CCCC(CO)C(=O)OCC (stereo not drawn) [204Q1]	348	306	324	–
CCCCCC=CCC=CCC=CCC=CCCC(F)C(=O)OCC (stereo not drawn) [204T1]	352	317	385	–
CCCCCC=CCC=CCC=CCC=CCCC(OC=O)C(=O)OC (stereo not drawn) [204U1]	270	369	263	–
CCCCCC=CCC=CCC=CCC=CCCC(C(=O)OCC)N(OCC)OCC (stereo not drawn) [204W1]	341	311	287	–
CCC=CCC=CCC=CCC=CCC=CCCC(O)C(=O)O (stereo not drawn) [205C1]	325	223	442	–
CCC=CCC=CCC=CCC=CCC=CCCC(OC)C(=O)OC (stereo not drawn) [205H1]	290	282	439	–
CCC=CCC=CCC=CCC=CCC=CCCC(OC)C(=O)OCC (stereo not drawn) [205I1]	351	261	510	–
CCC=CCC=CCC=CCC=CCC=CCCC(C)C(=O)OC (stereo not drawn) [205M1]	293	216	462	–
CCC=CCC=CCC=CCC=CCC=CCCC(Cl)C(=O)OCC (stereo not drawn) [205O1]	418	264	–	48.6
CCC=CCC=CCC=CCC=CCC=CCCC(CO)C(=O)OCC (stereo not drawn) [205Q1]	365	247	419	–
CCC=CCC=CCC=CCC=CCC=CCCC(F)C(=O)OCC (stereo not drawn) [205T1]	322	233	427	–
CCC=CCC=CCC=CCC=CCC=CCCC(OC=O)C(=O)OC (stereo not drawn) [205U1]	426	272	454	–
CCC=CCC=CCC=CCC=CCC=CCCC(C(=O)OCC)N(OCC)OCC (stereo not drawn) [205W1]	420	256	443	–
CCC=CCC=CCC=CCC=CCC=CCC=CCC(O)C(=O)O (stereo not drawn) [226C1]	214	210	237	–
CCC=CCC=CCC=CCC=CCC=CCC=CCC(OC)C(=O)OC (stereo not drawn) [226H1]	247	199	294	–
CCC=CCC=CCC=CCC=CCC=CCC=CCC(OC)C(=O)OCC (stereo not drawn) [226I1]	298	241	327	–
CCC=CCC=CCC=CCC=CCC=CCC=CCC(C)C(=O)OC (stereo not drawn) [226M1]	208	267	306	–
CCC=CCC=CCC=CCC=CCC=CCC=CCC(CO)C(=O)OCC (stereo not drawn) [226Q1]	252	263	254	–
CCC=CCC=CCC=CCC=CCC=CCC=CCC(F)C(=O)OCC (stereo not drawn) [226T1]	243	199	263	–
